Like-named read-outs stand apart in the source and are kept apart here.
Columns and labels:
CD8^+ T-cells = conditions: log-fold change, cited from earlier work
[1] = tested on: peripheral mononuclear cells; assay: ELISPOT of T-cell responses to vaccine peptides after 1st immunization of the breast cancer patient; format: in vivo, human; conditions: after the 1st immunization; for ELISpot: 5 days culture of PBMC from the patient
From the text: In the prior art, HLA-binding based epitope selection methods have been used for vaccine development. The epitopes in the personal vaccines made for the breast cancer patient were selected to bind at least 3 HLAs of the subject as described in the published US patent application 2018/264094. […] The potency of T-cell responses against the tumor antigens were predicted by the system described above (using HLA class I EWS, HLA class II EWS and overall EWS). The potency of T-cell responses to the vaccine peptides after the 1st immunization were measured with ELISPOT assay after 5 days culture of the peripheral mononuclear cells isolated from a blood sample of the patient (Spots/10^6 PBMC).

HeLa cells = assay: Cellular uptake of fluorescent-labeled peptide vaccines, flow cytometry; format: cell-based, human; conditions: for cells taking up the vaccine: 40 μM, within 30 minutes; for cellular uptake (intensity of fluorescence) compared to control: flow cytometry, control without R8
Protocol: (§1) Methods: HeLa cells were seeded at a density of 200,000 cells per well in 6-well plates and allowed to grow for one day. On the second day, the cells were treated with the peptides at three different concentrations (2.5 μM, 10 μM, and 40 μM) for two different incubation times (15 minutes and 30 minutes). After the treatment, the cells were detached using trypsin, washed, and resuspended in PBS. The cells were then analyzed using a FACS Canto flow cytometer. A total of 30,000 events were acquired, and the percentage of fluorescent cells and fluorescent intensity (geometric mean and median) were determined through flow analysis.
as §1, with “Methods” for “Methods:”

[2] = tested on: antigen-specific T-cell clone; conditions: peptide pool, response attributed to the dominant epitope, cited from earlier work
[3] = tested on: peritoneal tumour biopsies; assay: Transcriptome analysis of the Murcia patient's peritoneal tumour biopsies; conditions: target of 2nd generation personalized vaccines
From the text: All the putative 8-20 amino acids long epitopes were created from these proteins and used for designing the 2nd generation of personalized vaccines according to the invention. […] These antigens have different length and amino acid sequences. All selected peptide antigen contains multiple highly ranked epitopes (13-66) presented on the cell surface by the patient's HLA class I and class II molecules. The range of the potency score is indicated for the selected epitopes. Epitopes presented by the patient's HLA class I and class II molecules are indicated to induce CD8 and CD4 responses, respectively. As described in the invention, the potency of each epitope in the vaccines was calculated and indicated to inform the physician about the predicted efficacy of the personalised vaccines in the recipient.

[4] = ABF cohort individual BC10, Healthy
[5] = ABF cohort individual AP0201, Hospitalized
[6] = Subject 1005699, cohort COVID-19-Acute
[7] = Subject 1327414, cohort Healthy

In the case of “AMDEFIERY [SARS-COV-2 peptide of the ABF cohort data]”, the LFC (CD8^+ T-cells; [4]) is listed as 0.

In the case of “RLDQLLRHVMNPLETLSITN [PRAME long-peptide personal vaccine of the breast cancer patient]”, the ELISpot [1] is reported as 66 Spots/10^6 PBMC.

In the case of “AFPFTIYSL [SARS-COV-2 peptide of the ABF cohort data]”, the LFC (CD8^+ T-cells; [5]) is given as 0.

For “ADLDDFSKQL [SARS-COV-2 peptide of the ABF cohort data]”, the LFC (CD8^+ T-cells; [5]) is given as 0.

For “Fluoresc-EEKEIIVIKDTEKKDQS-RRRRRRRR-SQFNVPMLY-NH2 (fluorescein-EEKEIIVIKDTEKKDQSRRRRRRRRSQFNVPMLY-NH2) [AKAP-4-specific Personalized Vaccine, AKAP-4-specific VERDI Vaccine]”, the “cells taking up the vaccine” value (HeLa cells; HeLa cells) was 45% and the “cellular uptake (intensity of fluorescence) compared to control” value (HeLa cells) was “significantly higher uptake”.

With “FTSSRMSSFNRHMKTHTSEK [CTCFL long-peptide personal vaccine of the breast cancer patient]” the ELISpot [1] was 48 Spots/10^6 PBMC.

In the case of “ALRKVPTDNY [SARS-COV-2 peptide of the ABF cohort data]”, the LFC (CD8^+ T-cells; [4]) is given as 0.

For “AADLDDFSKQL [SARS-COV-2 peptide of the ABF cohort data]”, the LFC (CD8^+ T-cells; [4]) is listed as 0.

In the case of “APHGVVFLHV [SARS-COV-2 peptide of the ABF cohort data]”, the LFC (CD8^+ T-cells; [5]) is listed as 0.

In the case of “TLPPAWQPFLKDHRISTFKN [BIRC5 long-peptide personal vaccine of the breast cancer patient]”, the ELISpot [1] is reported as 71 Spots/10^6 PBMC.

In the case of VVFLHVTYV, the Hits [2, 6] is listed as 1 and the Hits [2, 7] is listed as 8.

In the case of “ALQDAYYRA [SARS-COV-2 peptide of the ABF cohort data]”, the LFC (CD8^+ T-cells; [4]) is given as 0.

With WT1 the Relative expression [3] was 59.

In the case of AYILFTRFFYV, the Hits [2, 6] is given as 3 and the Hits [2, 7] is given as 1.

For “APFLYLYAL [SARS-COV-2 peptide of the ABF cohort data]”, the LFC (CD8^+ T-cells; [5]) is given as 0.

“QEESFSPTAMDAIFGSLSDE [MAGEAA long-peptide personal vaccine of the breast cancer patient]” showed an ELISpot [1] of 0 Spots/10^6 PBMC.

In the case of “SGSSYFVLANGHILPNSENA [FMRINB long-peptide personal vaccine of the breast cancer patient]”, the ELISpot [1] is reported as 130 Spots/10^6 PBMC.

In the case of VASQSIIAY, the Hits [2, 6] is listed as 23 and the Hits [2, 7] is listed as 4.

In the case of IELSLIDFYL, the Hits [2, 6] is listed as 4.

In the case of FCNDPFLGVY, the Hits [2, 6] is given as 1.

For ITLATCELY, the Hits [2, 6] is listed as 12 and the Hits [2, 7] is listed as 1.

For DLFMRIFTI, the Hits [2, 6] is listed as 1.

For “ALLAVFQSA [SARS-COV-2 peptide of the ABF cohort data]”, the LFC (CD8^+ T-cells; [4]) is given as 0.

For ELIRQGTDY, the Hits [2, 6] is listed as 2.

Work on “NEQDLVREEAQKMSSLLPTM [SPAG9 long-peptide personal vaccine of the breast cancer patient]” yielded an ELISpot [1] of 0 Spots/10^6 PBMC.

For “APHGVVFL [SARS-COV-2 peptide of the ABF cohort data]”, the LFC (CD8^+ T-cells; [5]) is given as 0.

In the case of SVLLFLAFV, the Hits [2, 7] is listed as 5.

In the case of FAYANRNRF, the Hits [2, 6] is listed as 1.

In the case of AIMTRCLAV, the Hits [2, 7] is listed as 1.

In the case of NVFAFPFTIY, the Hits [2, 7] is listed as 19.

In the case of “APKEIIFL [SARS-COV-2 peptide of the ABF cohort data]”, the LFC (CD8^+ T-cells; [4]) is listed as 0.

In the case of FEYVSQPFL, the Hits [2, 6] is listed as 1.

“SDTKDYFMSKTLGIGRLKRP [FSIP1 long-peptide personal vaccine of the breast cancer patient]” gave an ELISpot [1] of 257 Spots/10^6 PBMC.

In the case of “ALTCFSTQF [SARS-COV-2 peptide of the ABF cohort data]”, the LFC (CD8^+ T-cells; [4]) is listed as 0.

In the case of “AHAEETRKL [SARS-COV-2 peptide of the ABF cohort data]”, the LFC (CD8^+ T-cells; [5]) is given as 0.

For “ALLADKFPVL [SARS-COV-2 peptide of the ABF cohort data]”, the LFC (CD8^+ T-cells; [5]) is listed as 0 and the LFC (CD8^+ T-cells; [4]) is listed as 0.

For “ALVYFLQSI [SARS-COV-2 peptide of the ABF cohort data]”, the LFC (CD8^+ T-cells; [5]) is given as 0.

For “Fluoresc-THVDIRTLEDLLMGTL-RRRRRRRR-RAHYNIVTF-NH2 (fluorescein-THVDIRTLEDLLMGTLRRRRRRRRRAHYNIVTF-NH2) [HPV-specific Personalized Vaccine, E7 (HPV16)-specific VERDI Vaccine]”, the “more peptide accumulated in each cell compared to the control vaccines (median fluorescence intensity)” value (HeLa cells; HeLa cells) was “approximately 30%”, the “cells taking up the vaccine” value (HeLa cells; HeLa cells) was “more than 50%” and the “cells taking up the vaccine” value (HeLa cells; HeLa cells, listed as HPV-specific vaccine) was 53%. The “cellular uptake (intensity of fluorescence) compared to control” value (HeLa cells) was “significantly higher uptake”.

For BLTP2, the Relative expression [3] was 95.

For KEIIFLEGETL, the Hits [2, 7] is given as 1.

For “ANPKTPKYKF [SARS-COV-2 peptide of the ABF cohort data]”, the LFC (CD8^+ T-cells; [5]) is listed as 0.

In the case of ALNTLVKQL, the Hits [2, 7] is given as 1.

In the case of “APISAMVRM [SARS-COV-2 peptide of the ABF cohort data]”, the LFC (CD8^+ T-cells; [4]) is given as 0.

With “SVYADQVNIDYLMNRPQNLR [AKAP4 long-peptide personal vaccine of the breast cancer patient]” the ELISpot [1] was 366 Spots/10^6 PBMC and the “T cell responses (ELISPOT)” value ([1]; breast cancer patient) was 366 spots/million cells.

B1: SPAG9 (protein, UniProt O60271 1-1321, looked up)
C-Jun-amino-terminal …: MELEDGVVYQEEPGGSGAVMSERVSGLAGSIYREFERLIGRYDEEVVKELMPLVVAVLENLDSVFAQDQEHQVELELLRDDNEQLITQYEREKALRKHAEEKFIEFEDSQEQEKKDLQTRVESLESQTRQLELKAKNYADQISRLEEREAELKKEYNALHQRHTEMIHNYMEHLERTKLHQLSGSDQLESTAHSRIRKERPISLGIFPLPAGDGLLTPDAQKGGETPGSEQWKFQELSQPRSHTSLKVSNSPEPQKAVEQEDELSDVSQGGSKATTPASTANSDVATIPTDTPLKEENEGFVKVTDAPNKSEISKHIEVQVAQETRNVSTGSAENEEKSEVQAIIESTPELDMDKDLSGYKGSSTPTKGIENKAFDRNTESLFEELSSAGSGLIGDVDEGADLLGMGREVENLILENTQLLETKNALNIVKNDLIAKVDELTCEKDVLQGELEAVKQAKLKLEEKNRELEEELRKARAEAEDARQKAKDDDDSDIPTAQRKRFTRVEMARVLMERNQYKERLMELQEAVRWTEMIRASRENPAMQEKKRSSIWQFFSRLFSSSSNTTKKPEPPVNLKYNAPTSHVTPSVKKRSSTLSQLPGDKSKAFDFLSEETEASLASRREQKREQYRQVKAHVQKEDGRVQAFGWSLPQKYKQVTNGQGENKMKNLPVPVYLRPLDEKDTSMKLWCAVGVNLSGGKTRDGGSVVGASVFYKDVAGLDTEGSKQRSASQSSLDKLDQELKEQQKELKNQEELSSLVWICTSTHSATKVLIIDAVQPGNILDSFTVCNSHVLCIASVPGARETDYPAGEDLSESGQVDKASLCGSMTSNSSAETDSLLGGITVVGCSAEGVTGAATSPSTNGASPVMDKPPEMEAENSEVDENVPTAEEATEATEGNAGSAEDTVDISQTGVYTEHVFTDPLGVQIPEDLSPVYQSSNDSDAYKDQISVLPNEQDLVREEAQKMSSLLPTMWLGAQNGCLYVHSSVAQWRKCLHSIKLKDSILSIVHVKGIVLVALADGTLAIFHRGVDGQWDLSNYHLLDLGRPHHSIRCMTVVHDKVWCGYRNKIYVVQPKAMKIEKSFDAHPRKESQVRQLAWVGDGVWVSIRLDSTLRLYHAHTYQHLQDVDIEPYVSKMLGTGKLGFSFVRITALMVSCNRLWVGTGNGVIISIPLTETNKTSGVPGNRPGSVIRVYGDENSDKVTPGTFIPYCSMAHAQLCFHGHRDAVKFFVAVPGQVISPQSSSSGTDLTGDKAGPSAQEPGSQTPLKSMLVISGGEGYIDFRMGDEGGESELLGEDLPLEPSVTKAERSHLIVWQVMYGNE
B1 gave a Relative expression [3] of 70.

B2: ODF2 (protein, UniProt Q5BJF6 1-829, looked up)
Outer dense fiber protein 2: MSASSSGGSPRFPSCGKNGVTSLTQKKVLRAPCGAPSVTVTKSHKRGMKGDTVNVRRSVRVKTKVPWMPPGKSSARPVGCKWENPPHCLEITPPSSEKLVSVMRLSDLSTEDDDSGHCKMNRYDKKIDSLMNAVGCLKSEVKMQKGERQMAKRFLEERKEELEEVAHELAETEHENTVLRHNIERMKEEKDFTILQKKHLQQEKECLMSKLVEAEMDGAAAAKQVMALKDTIGKLKTEKQMTCTDINTLTRQKELLLQKLSTFEETNRTLRDLLREQHCKEDSERLMEQQGALLKRLAEADSEKARLLLLLQDKDKEVEELLQEIQCEKAQAKTASELSKSMESMRGHLQAQLRSKEAENSRLCMQIKNLERSGNQHKAEVEAIMEQLKELKQKGDRDKESLKKAIRAQKERAEKSEEYAEQLHVQLADKDLYVAEALSTLESWRSRYNQVVKEKGDLELEIIVLNDRVTDLVNQQQTLEEKMREDRDSLVERLHRQTAEYSAFKLENERLKASFAPMEDKLNQAHLEVQQLKASVKNYEGMIDNYKSQVMKTRLEADEVAAQLERCDKENKILKDEMNKEIEAARRQFQSQLADLQQLPDILKITEAKLAECQDQLQGYERKNIDLTAIISDLRSRIEHQGDKLEMAREKHQASQKENKQLSLKVDELERKLEATSAQNIEFLQVIAKREEAIHQSQLRLEEKTRECGTLARQLESAIEDARRQVEQTKEHALSKERAAQNKILDLETQLSRTKTELSQLRRSRDDADRRYQSRLQDLKDRLEQSESTNRSMQNYVQFLKSSYANVFGDGPYSTFLTSSPIRSRSPPA
B2 gave a Relative expression [3] of 19.

From US20260188423A1, “IDENTIFICATION OF CELL SURFACE ANTIGENS WHICH INDUCE T-CELL RESPONSES AND THEIR USES” (priority 2022, published 2026)
